Reference: patent publication US20120122870A1, “Treatment Of Ischemia-Reperfusion Injury” (MUSC FOUNDATION FOR RESEARCH DEVELOPMENT, priority 2009, published 2012)
pIC50: −log10 of the molar value.

How the values were obtained:
[1] = target: T1, recombinant human SK (Homo sapiens, UniProt Q9NYA1); assay: Recombinant human SK activity assay ([3H]sphingosine to [3H]S1P); format: biochemical; settings: Human SK incubated with 6 μg/mL of compound; percentage of SK activity inhibited
T1 construct: GST (glutathione-S-transferase) (N); made in house; host or cells: bacteria (pGEX bacterial expression vector)
Method: SK activity is measured by incubation of the recombinant SK with [^3H]sphingosine and 1 mM ATP under defined conditions, followed by extraction of the assay mixture with chloroform:methanol under basic conditions. […] Radioactivity in aliquots of the aqueous phase is then quantified as a measure of [^3H]S1P formation.
Human SK was incubated with 6 μg/mL of the indicated compounds, and then assayed for activity as described above. Values in the column labeled “Recombinant SK (% inhibition)” represent the percentage of SK activity that was inhibited. MDA-MB-231 cells were incubated with 20 μg/mL of the indicated compounds and then assayed for endogenous SK activity as indicated above. Values in the column labeled “Cellular S1P (% inhibition)” represent the percentage of S1P production that was inhibited. Additionally, MDA-MB-231 cells were treated with varying concentration of certain compounds and the amount of S1P produced by the cells was determined. Values in the column labeled “Cellular S1P IC50 (μM)” represent the concentration of compound required to inhibit the production of S1P by 50%. ND=not determined.

[2] = tested on: endogenous SK activity in MDA-MB-231 cells; assay: Cellular S1P production (endogenous SK activity) in MDA-MB-231 cells; format: cell-based; settings: for inhibition at 20 µg/mL / pIC50: Homo sapiens; for inhibition at 20 µg/mL: MDA-MB-231, MDA-MB-231 cells incubated with 20 μg/mL of compound; for pIC50: MDA-MB-231 cells, varying concentrations, concentration inhibiting S1P production by 50%
Procedure, shortened: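 MDA-MB-231 cells treated with 20 μg/mL compound and assayed for endogenous SK activity, reported as % inhibition of S1P production. For IC50, cells received varying compound concentrations and S1P produced was measured; IC50 is the concentration giving 50% inhibition.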

[3] = percentage of S1P production inhibited

T1 sequence (Q9NYA1 whole entry): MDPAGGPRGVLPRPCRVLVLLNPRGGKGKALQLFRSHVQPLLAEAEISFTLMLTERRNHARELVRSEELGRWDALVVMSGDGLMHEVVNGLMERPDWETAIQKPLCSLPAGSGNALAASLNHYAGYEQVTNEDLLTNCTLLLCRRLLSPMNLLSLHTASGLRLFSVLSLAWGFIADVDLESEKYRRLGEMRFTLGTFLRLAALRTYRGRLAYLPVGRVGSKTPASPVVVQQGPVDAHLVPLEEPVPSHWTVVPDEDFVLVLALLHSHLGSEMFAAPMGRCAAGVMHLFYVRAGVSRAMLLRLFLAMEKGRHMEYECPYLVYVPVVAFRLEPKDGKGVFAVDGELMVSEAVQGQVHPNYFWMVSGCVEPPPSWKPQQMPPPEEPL

Structure (SMILES)	inhibition at 6 µg/mL [1] [%]	Recombinant SK (% inhibition) [1] [%]	pIC50 [2]	inhibition at 20 µg/mL [2, 3] [%]	Cellular S1P (% inhibition) ([2]; MDA-MB-231 cells incubated with 20 μg/mL of compound, percentage of S1P production inhibited) [%]
O=C(Nc1cccc(CO)c1)C12CC3CC(C1)CC(c1ccc(Cl)cc1)(C3)C2 [A9, 3-(4-Chloro-phenyl)-adamantane-1-carboxylic acid (3-hydroxymethyl-phenyl)-amide]	84	–	–	40	–
N#CCc1ccc(NC(=O)C23CC4CC(CC(C4)C2)C3)cc1 [A10, Adamantane-1-carboxylic acid (4-cyanomethyl-phenyl)-amide]	3	–	–	9	–
O=C(NCc1ccc(O)c(O)c1)C12CC3CC(CC(C3)C1)C2 [A35, Adamantane-1-carboxylic acid 3,4-dihydroxy-benzylamide]	87	–	–	0	–
O=C(NCCc1ccccc1)C12CC3CC(C1)CC(c1ccc(Cl)cc1)(C3)C2 [A37, 3-(4-Chloro-phenyl)-adamantane-1-carboxylic acid phenethyl-amide]	24	–	–	36	–
O=C(NCCc1ccc(Br)cc1)C12CC3CC(C1)CC(c1ccc(Cl)cc1)(C3)C2 [A39, 3-(4-Chloro-phenyl)-adamantane-1-carboxylic acid [2-(4-bromo-phenyl)-ethyl]-amide]	19	–	–	26	–
O=C(NCCc1ccc(O)cc1)C12CC3CC(C1)CC(c1ccc(Cl)cc1)(C3)C2 [A40, 3-(4-Chloro-phenyl)-adamantane-1-carboxylic acid [2-(4-hydroxy-phenyl)-ethyl]-amide]	100	–	–	52	–
O=C(NCCCc1ccccc1)C12CC3CC(C1)CC(c1ccc(Cl)cc1)(C3)C2 [A48, 3-(4-Chloro-phenyl)-adamantane-1-carboxylic acid (3-phenyl-propyl)-amide]	36	–	–	14	–
CN1CCC(NC(=O)C23CC4CC(C2)CC(c2ccc(Cl)cc2)(C4)C3)CC1 [A51, 3-(4-Chloro-phenyl)-adamantane-1-carboxylic acid (1-methyl-piperidin-4-yl)-amide]	84	–	4.60	88	–
CN1CCN(NC(=O)C23CC4CC(C2)CC(c2ccc(Cl)cc2)(C4)C3)CC1 [A52, 3-(4-Chloro-phenyl)-adamantane-1-carboxylic acid (4-methyl-piperazin-1-yl)-amide]	54	–	–	61	–
CN1CCCC1CCNC(=O)C12CC3CC(C1)CC(c1ccc(Cl)cc1)(C3)C2 (stereo not drawn) [A57, 3-(4-Chloro-phenyl)-adamantane-1-carboxylic acid [2-(1-methyl-pyrrolidin-2-yl)-ethyl]-amide]	30	–	4.22	83	–
O=C(NCc1ccncc1)C12CC3CC(CC(C3)C1)C2 [A60, Adamantane-1-carboxylic acid (pyridin-4-ylmethyl)-amide]	0	–	–	23	–
O=C(NCc1ccncc1)C12CC3CC(C1)CC(c1ccc(F)cc1)(C3)C2 [A61, 3-(4-Fluoro-phenyl)-adamantane-1-carboxylic acid (pyridin-4-ylmethyl)-amide]	58	–	–	24	–
O=C(NCc1ccncc1)C12CC3CC(C1)CC(c1ccc(Cl)cc1)(C3)C2 [A62, 3-(4-Chloro-phenyl)-adamantane-1-carboxylic acid (pyridin-4-ylmethyl)-amide]	13	–	4.59	92	–
O=C(NCCc1ccncc1)C12CC3CC(C1)CC(c1ccc(Cl)cc1)(C3)C2 [A64, 3-(4-Chloro-phenyl)-adamantane-1-carboxylic acid (2-pyridin-4-yl-ethyl)-amide]	41	–	4.20	80	–
CCn1c2ccccc2c2cc(NC(=O)C34CC5CC(C3)CC(c3ccc(Cl)cc3)(C5)C4)ccc21 [A68, 3-(4-Chloro-phenyl)-adamantane-1-carboxylic acid (9-ethyl-9H-carbazol-3-yl)-amide]	17	–	–	0	–
O=C(Nc1nc(-c2ccc(Cl)cc2)cs1)C12CC3CC(CC(C3)C1)C2 [A69, Adamantane-1-carboxylic acid [4-(4-chloro-phenyl)-thiazol-2-yl]-amide]	40	–	–	13	–
O=C(Nc1nc(-c2ccc(Cl)cc2)cs1)C12CC3CC(C1)CC(c1ccc(Cl)cc1)(C3)C2 [A70, 3-(4-Chloro-phenyl)-adamantane-1-carboxylic acid [4-(4-chloro-phenyl)-thiazol-2-yl]-amide]	33	–	–	4	–
O=C(Nc1nc2ccccc2s1)C12CC3CC(C1)CC(c1ccc(Cl)cc1)(C3)C2 [A71, 3-(4-Chloro-phenyl)-adamantane-1-carboxylic acid benzothiazol-2-ylamide]	27	–	–	0	–
CN1CCN(NCC23CC4CC(C2)CC(c2ccc(Cl)cc2)(C4)C3)CC1 [A83, [3-(4-Chloro-phenyl)-adamantan-1-ylmethyl]-(4-methyl-piperazin-1-yl)-amine]	60	–	4.80	88	–

More lines, main results first:

inhibition at 6 µg/mL [1] [%]	Recombinant SK (% inhibition) [1] [%]	pIC50 [2]	Structure (SMILES)	inhibition at 20 µg/mL [2, 3] [%]	Cellular S1P (% inhibition) ([2]; MDA-MB-231 cells incubated with 20 μg/mL of compound, percentage of S1P production inhibited) [%]
17	–	–	N#CCc1ccc(NC(=O)C23CC4CC(C2)CC(c2ccc(Cl)cc2)(C4)C3)cc1 [A11, 3-(4-Chloro-phenyl)-adamantane-1-carboxylic acid (4-cyanomethyl-phenyl)-amide]	0	–
36	–	–	O=C(NCc1ccccc1)C12CC3CC(C1)CC(c1ccc(Cl)cc1)(C3)C2 [A12, 3-(4-Chloro-phenyl)-adamantane-1-carboxylic acid benzylamide]	3	–
78	–	–	CC(C)(C)c1ccc(CNC(=O)C23CC4CC(C2)CC(c2ccc(Cl)cc2)(C4)C3)cc1 [A13, 3-(4-Chloro-phenyl)-adamantane-1-carboxylic acid 4-tert-butyl-benzylamide]	0	–
55	–	–	CC(NC(=O)C12CC3CC(C1)CC(c1ccc(Cl)cc1)(C3)C2)c1ccc(Br)cc1 (stereo not drawn) [A29, 3-(4-Chloro-phenyl)-adamantane-1-carboxylic acid [1-(4-bromo-phenyl)-ethyl]-amide]	0	–
40	–	–	O=C(NCCc1ccc(F)cc1)C12CC3CC(C1)CC(c1ccc(Cl)cc1)(C3)C2 [A38, 3-(4-Chloro-phenyl)-adamantane-1-carboxylic acid [2-(4-fluoro-phenyl)-ethyl]-amide]	34	–
–	67	–	O=C(NCc1ccc(Oc2ccccc2)cc1)C12CC3CC(C1)CC(c1ccc(Cl)cc1)(C3)C2 [A41, 3-(4-Chloro-phenyl)-adamantane-1-carboxylic acid 4-phenoxy-benzylamide]	23	–
0	–	–	O=C(NCCc1ccc(O)c(O)c1)C12CC3CC(CC(C3)C1)C2 [A43, Adamantane-1-carboxylic acid [2-(3,4-dihydroxy-phenyl)-ethyl]-amide]	0	–
0	–	–	CN1CCC(NC(=O)C23CC4CC(CC(C4)C2)C3)CC1 [A50, Adamantane-1-carboxylic acid (1-methyl-piperidin-4-yl)-amide]	44	–
33	–	–	CN1CCCC1CCNC(=O)C12CC3CC(CC(C3)C1)C2 (stereo not drawn) [A56, Adamantane-1-carboxylic acid [2-(1-methyl-pyrrolidin-2-yl)-ethyl]-amide]	40	–
67	–	–	O=C(NCCN1CCOCC1)C12CC3CC(C1)CC(c1ccc(Cl)cc1)(C3)C2 [A58, 3-(4-Chloro-phenyl)-adamantane-1-carboxylic acid (2-morpholin-4-yl-ethyl)-amide]	55	–
–	0	–	O=C(NCc1ccncc1)C12CC3CC(CC(C3)C1)C2 [A63, Adamantane-1-carboxylic acid (pyridin-4-ylmethyl)-amide]	–	39
92	–	–	Cc1cc2cc(NC(=O)C34CC5CC(C3)CC(c3ccc(Cl)cc3)(C5)C4)ccc2[nH]1 [A66, 3-(4-Chloro-phenyl)-adamantane-1-carboxylic acid (2-methyl-1H-indol-5-yl)-amide]	8	–
14	–	–	O=C(Nc1nc2cc(Cl)ccc2o1)C12CC3CC(C1)CC(c1ccc(Cl)cc1)(C3)C2 [A72, 3-(4-Chloro-phenyl)-adamantane-1-carboxylic acid (5-chloro-benzooxazol-2-yl)-amide]	1	–
75	–	4.19	Clc1ccc(C23CC4CC(CC(CNCCN5CCOCC5)(C4)C2)C3)cc1 [A87, [3-(4-Chloro-phenyl)-adamantan-1-ylmethyl]-(2-morpholin-4-yl-ethyl)-amine]	55	–
